Legend:
[1] = system: H358 cells; experiment: Inhibition of H358 cell proliferation (CellTiter-Glo 3D, 7 days); format: cell-based; conditions: Homo sapiens, 168 h, NCI-H358, 7 days, read-out: IC50 (nM), inhibitory activity on H358 cell proliferation
Description: • (a) The cells were thawed in T75 cell culture flasks:
• (b) When 80-90% cell confluence was achieved, the cells were passaged.
The diluted test compounds were added to a 384-well cell culture plate using a nanoliter pipetting system, and duplicate wells were set. An equal volume of medium was added to the positive control group; an equal volume of DMSO was added to the negative control group. The plate was centrifuged at 1000 rpm at room temperature for 1 min.
The cells were inoculated into a) 384-well culture plate, an equal volume of cells was added to the negative control group, and only an equal volume of medium was added to the positive control group. The plate was centrifuged at 1000 rpm at room temperature for 1 min. The final concentration of DMSO in the final compounds was 0.5%. The plate was incubated in a thermostatic incubator at 37° C. with 5% CO2 for 7 days.
CellTiter-Glo® 3D was added to b) 384-well cell culture plate at 20 μL/well. The plate was shaken at 320 rpm in the dark for 20 min, and incubated at room temperature in the dark for 2 h. The luminescence values were read using an Envision multi-mode microplate reader.
The inhibition rates of the compounds at different concentrations were calculated in Excel, and then inhibition curves were plotted and relevant parameters including minimum inhibition rate, maximum inhibition rate and IC50 were calculated using GraphPad Prism software.

[2] = target: T1, binding of KRAS^G12C to SOS1 (Homo sapiens, UniProt Q07889); experiment: Inhibition of the binding of KRAS^G12C to SOS1; conditions: Tag1-SOS1 / Tag2-KRAS^G12C, 2 h incubation at room temperature; read-out: IC50 (nM), inhibitory activity on the binding of KRAS^G12C to SOS1
T1 construct: Tag1 (unspecified)
T1 sequence (Q07889 1-1333): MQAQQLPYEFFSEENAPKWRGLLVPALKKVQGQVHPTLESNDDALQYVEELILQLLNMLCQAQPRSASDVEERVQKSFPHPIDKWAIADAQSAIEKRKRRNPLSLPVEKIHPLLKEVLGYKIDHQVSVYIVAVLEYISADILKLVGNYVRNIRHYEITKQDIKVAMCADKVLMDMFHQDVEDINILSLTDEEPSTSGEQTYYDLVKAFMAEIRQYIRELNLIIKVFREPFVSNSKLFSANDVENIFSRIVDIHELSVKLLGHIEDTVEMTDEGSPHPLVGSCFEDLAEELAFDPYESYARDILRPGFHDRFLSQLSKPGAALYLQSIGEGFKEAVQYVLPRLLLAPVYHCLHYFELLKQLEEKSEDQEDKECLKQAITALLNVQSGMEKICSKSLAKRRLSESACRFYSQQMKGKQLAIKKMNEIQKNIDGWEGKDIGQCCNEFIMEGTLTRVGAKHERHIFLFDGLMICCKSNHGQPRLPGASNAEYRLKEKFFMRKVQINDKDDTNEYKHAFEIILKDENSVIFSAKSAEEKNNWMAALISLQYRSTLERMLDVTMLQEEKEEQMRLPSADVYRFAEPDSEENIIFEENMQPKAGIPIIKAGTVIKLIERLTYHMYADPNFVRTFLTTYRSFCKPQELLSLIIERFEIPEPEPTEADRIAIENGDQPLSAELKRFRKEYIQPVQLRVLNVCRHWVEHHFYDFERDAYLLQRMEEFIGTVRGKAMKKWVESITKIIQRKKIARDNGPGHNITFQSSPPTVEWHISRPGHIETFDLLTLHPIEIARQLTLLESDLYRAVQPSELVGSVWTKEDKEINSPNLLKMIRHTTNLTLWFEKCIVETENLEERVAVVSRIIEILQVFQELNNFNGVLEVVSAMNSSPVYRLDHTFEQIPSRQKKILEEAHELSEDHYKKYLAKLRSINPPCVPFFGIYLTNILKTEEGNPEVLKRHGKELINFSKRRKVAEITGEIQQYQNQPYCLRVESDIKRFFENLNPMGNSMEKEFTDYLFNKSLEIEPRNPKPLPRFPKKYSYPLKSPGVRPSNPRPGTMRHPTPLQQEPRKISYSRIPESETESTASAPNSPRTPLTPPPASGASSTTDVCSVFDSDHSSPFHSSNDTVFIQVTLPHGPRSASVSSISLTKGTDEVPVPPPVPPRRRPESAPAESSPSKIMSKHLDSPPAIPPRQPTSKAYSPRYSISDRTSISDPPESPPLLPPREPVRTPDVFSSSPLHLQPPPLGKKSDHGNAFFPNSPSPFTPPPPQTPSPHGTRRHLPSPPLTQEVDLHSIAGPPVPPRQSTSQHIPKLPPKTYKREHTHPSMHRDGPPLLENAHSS
Procedure, shortened: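 Tag1-SOS1 and Tag2-KRAS^G12C mixed with serially diluted compound (final 0.25% DMSO), then anti-Tag1-Tb3+ and anti-Tag2-XL665 added for 2 h at room temperature. IC50 from curve fit of the TR-FRET signal.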

Compound	IC50 [1]	IC50 [2]
COCCOc1cc2c(N[C@H](C)c3cc(F)cc(C(F)(F)C(C)(C)O)c3)nc(C)nc2cc1OC [Example 80, (R)-1,1-Difluoro-1-(3-fluoro-5-(1-((7-methoxy-6-(2-methoxyethoxy)-2-methylquinazolin-4-yl)amino)ethyl)phenyl)-2-methylpropan-2-ol]	53 nM	6.2 nM
COc1cc2nc(C)nc(N[C@H](C)c3cc(N)cc(C(F)(F)F)c3)c2cc1OCCOC1COC1 [Example 44, (R)—N-(1-(3-Amino-5-(trifluoromethyl)phenyl)ethyl)-7-methoxy-2-methyl-6-(2-(oxetan-3-yloxy)ethoxy)quinazolin-4-amine]	25 nM	4.4 nM
COCCOc1cc2c(N[C@H](C)c3cccc(C(F)(F)C(C)(C)O)c3F)nc(C)nc2cc1-c1cnn(C)c1 [Example 102, (R)-1,1-Difluoro-1-(2-fluoro-3-(1-((6-(2-methoxyethoxy)-2-methyl-7-(1-methyl-1H-pyrazol-4-yl)quinazolin-4-yl)amino)ethyl)phenyl)-2-methylpropyl-2-ol]	13.3 nM	
COCCOc1cc2c(N[C@H](C)c3cccc(C(F)(F)C(C)(C)O)c3F)nc(C)nc2cc1C#N [Example 89, (R)-4-((1-(3-(1,1-Difluoro-2-hydroxy-2-methylpropyl)-2-fluorophenyl)ethyl)amino)-6-(2-methoxyethoxy)-2-methylquinazoline-7-carbonitrile]	130 nM	6.7 nM
COc1cc2nc(C)nc(N[C@H](C)c3cc(N)cc(C(F)(F)F)c3)c2cc1OCCOC1CC1(F)F (stereo partly drawn) [Example 82, N—((R)-1-(3-Amino-5-(trifluoromethyl)phenyl)ethyl)-6-(2-(2,2-difluorocyclopropyloxy)ethoxy)-7-methoxy-2-methylquinazolin-4-amine]	33 nM	4.5 nM
COc1cc2nc(C)nc(N[C@H](C)c3cccc(C(F)(F)C(C)(C)O)c3F)c2cc1OCCOC1COC1 [Example 92, (R)-1,1-Difluoro-1-(2-fluoro-3-(1-((7-methoxy-2-methyl-6-(2-(oxetan-3-yloxy)ethoxy)quinazolin-4-yl)amino)ethyl)phenyl)-2-methylpropan-2-ol]	18.2 nM	
COCCOc1cc2c(N[C@H](C)c3cc(N)cc(OC(F)(F)F)c3)nc(C)nc2cc1OC [Example 83, (R)—N-(1-(3-Amino-5-(trifluoromethoxy)phenyl)ethyl)-7-methoxy-6-(2-methoxyethoxy)-2-methylquinazolin-4-amine]	187 nM	15 nM
COCCOc1cc2c(N[C@H](C)c3cccc(C(F)(F)CO)c3)nc(C)nc2cc1OC [Example 85]	39 nM	4.1 nM
COCCOc1cc2c(N[C@H](C)c3cccc(C(F)(F)C(C)(C)O)c3C)nc(C)nc2cc1OC [Example 90, (R)-1,1-Difluoro-1-(3-(1-((7-methoxy-6-(2-methoxyethoxy)-2-methylquinazolin-4-yl)amino)ethyl)-2-methylphenyl)-2-methylpropan-2-ol]	48.6 nM	
COCCOc1cc2c(N[C@H](C)c3cc(N)cc(C(F)(F)C(C)(C)O)c3)nc(C)nc2cc1OC [Example 74]	6.5 nM	3.1 nM
COc1cc2nc(C)nc(N[C@H](C)c3cccc(C(F)(F)C(C)(C)O)c3F)c2cc1OCCOC1CC1 [Example 93, (R)-1-(3-(1-((6-(2-Cyclopropyloxyethoxy)-7-methoxy-2-methylquinazolin-4-yl)amino)ethyl)-2-fluorophenyl)-1,1-difluoro-2-methylpropan-2-ol]	40.9 nM	
COCCOc1cc2c(N[C@H](C)c3cccc(C(F)(F)C(C)(C)O)c3F)nc(C)nc2cc1OC1COC1 [Example 103]	23.5 nM	
COCCOc1cc2nc(C)nc(N[C@H](C)c3cc(N)cc(C(F)(F)C(C)(C)O)c3)c2cc1OCCOC [Example 113, (R)-1-(3-Amino-5-(1-((6,7-bis(2-methoxyethoxy)-2-methylquinazolin-4-yl)amino)ethyl)phenyl)-1,1-difluoro-2-methylpropan-2-ol]	10.4 nM	

Further lines, results first:

IC50 [1]	IC50 [2]	Compound
4.29 nM		COc1cc2nc(C)nc(N[C@H](C)c3cc(N)cc(C(F)(F)C(C)(C)O)c3)c2cc1OCCOC1CC1 [Example 116, (R)-1-(3-Amino-5-(1-((6-(2-cyclopropoxyethoxy)-7-methoxy-2-methylquinazolin-4-yl)amino)ethyl)phenyl)-1,1-difluoro-2-methylpropyl-2-ol]
2.65 nM		COc1cc2nc(C)nc(N[C@H](C)c3cc(N)cc(C(F)(F)C(C)(C)O)c3)c2cc1OCCOC1COC1 [Example 117, (R)-1-(3-Amino-5-(1-((7-methoxy-2-methyl-6-(2-(oxetan-3-yloxy)ethoxy)quinazolin-4-yl)amino)ethyl)phenyl)-1,1-difluoro-2-methylpropyl-2-ol]
34.7 nM		C#Cc1cc2nc(C)nc(N[C@H](C)c3cccc(C(F)(F)C(C)(C)O)c3F)c2cc1OCCOC [Example 153, (R)-1-(3-(1-(7-ethynyl-6-(2-methoxyethoxy)-2-methylquinazoline-4-amino)ethyl)-2-fluorophenyl)-1,1-difluoro-2-methylpropan-2-ol]
14.5 nM		C#Cc1cc2nc(C)nc(N[C@H](C)c3cc(N)cc(C(F)(F)C(C)(C)O)c3)c2cc1OCCOC [Example 163, (R)-1-(3-Amino-5-(1-((7-ethynyl-6-(2-methoxyethoxy)-2-methylquinazolin-4-yl)amino)ethyl)phenyl)-1,1-difluoro-2-methylpropan-2-ol]
15.6 nM		COCC(COC)Oc1cc2c(N[C@H](C)c3cc(N)cc(C(F)(F)C(C)(C)O)c3)nc(C)nc2cc1OC [Example 122]
2.65 nM		COc1cc2nc(C)nc(N[C@H](C)c3cc(N)cc(C(F)(F)C(C)(C)O)c3)c2cc1OCCOC1CC1(F)F (some centres unmarked) [Example 118]
15.8 nM		C#Cc1cc2nc(C)nc(N[C@H](C)c3cccc(C(F)(F)C(C)(C)O)c3F)c2cc1OCCOC1COC1 [Example 157, (R)-1-(3-(1-((7-Ethynyl-2-methyl-6-(2-(oxetan-3-yloxy)ethoxy)quinazolin-4-yl)amino)ethyl)-2-fluorophenyl)-1,1-difluoro-2-methylpropan-2-ol]
9.92 nM		COc1cc2nc(C)nc(N[C@H](C)c3cc(N)cc(C(F)(F)C(C)(C)O)c3)c2cc1OCCOc1cccnc1 [Example 115, (R)-1-(3-Amino-5-(1-(7-methoxy-2-methyl-6-(2-(pyridine-3-oxy)ethoxy)quinazolin-4-yl)amino)ethyl)phenyl-1,1-difluoro-2-methylpropan-2-ol]
11.5 nM		COCCOCCOc1cc2c(N[C@H](C)c3cc(N)cc(C(F)(F)C(C)(C)O)c3)nc(C)nc2cc1OC [Example 119, (R)-1-(3-Amino-5-(1-(7-methoxy-6-(2-(2-methoxyethoxy)ethoxy)-2-methylquinazolin-4-yl)amino)ethylphenyl)-1,1-difluoro-2-methylpropan-2-ol]

— patent US20240336606A1 (Suzhou Zelgen Biopharmaceuticals Co., Ltd., priority 2020, published 2024)
